Measurements from article PMC10989073, “Antineoplastic effect of compounds C14 and P8 on TNBC and radioresistant TNBC cells by stabilizing the K-Ras4B^G13D/PDE6δ complex” (Frontiers in Oncology, 2024).
Like-named read-outs stand apart in the source and are kept apart here.

Experiments:
Assay type in all cases: cell-based, human
[1] = tested on: cyclin D1 and GSK3β in MDA-MB-231 cells; experiment: Western blotting of cyclin D1 and GSK3β; conditions: MDA-MB-231, 3 h; for reduction in cyclin D1 expression: C14 and P8 at IC50-24 (Figure 7 legend), cisplatin 100 µM, doxorubicin 0.5 µM; for reduction in GSK3β expression: IC50-24 (Figure 7 legend), densitometry
Description: To determine the effect of the C14 and P8 compounds over the protein effectors of K-Ras4B, AKT, and ERK, immunoblotting assays were conducted with specific antibodies. In brief, MCF-10A, MDA-MB-231, and MDA-MB-231RR cells were plated in 100-mm culture dishes until 80% of confluents. Cell adhesion was allowed for 24 h. […] After pre-treatment, cells were stimulated with 100 ng/ml EGF for 10 minutes to promote AKT and ERK activation. Later, the whole-cell extracts were obtained by the lysis of the cells (Cytoskeleton) in the presence of proteases and phosphatase inhibitors. Subsequently, the protein extracts were incubated at 4°C for 40 minutes to be clarified by centrifugation for 10 minutes at 14,000 rpm, at 4°C. The protein concentration of each extract was determined by using the Precision Red Advanced Protein Assay Reagent (Cytoskeleton) Then, approximately 25 μg of protein extract was electrophoresed in 10% sodium dodecyl sulfate–polyacrylamide gel electrophoresis (SDS-PAGE) and transferred to polyvinylidene fluoride (PVDF) membranes (Millipore, Billerica, MA, USA). Blots were probed using the following primary antibodies: Total ERK (Cell Signaling, Danvers, MA, USA), pERK (Cell Signaling), Total AKT (Cell Signaling), pAKT (Cell Signaling), GSK3β (Cell Signaling), and cyclin D1 (Abcam) at a 1:1,000 dilution. As a control, an anti-GAPDH antibody (GeneTex, Irvine, CA, USA) was employed at a 1:100,000 dilution and γ-Tubulin (Invitrogen) 1:5,000. Densitometric analysis of blots was performed using the software ImageJ version 1.45 (National Institutes of Health, Bethesda, […], USA).

MDA-MB-231 cells [2] = experiment: Apoptosis/necrosis assay (Annexin V–propidium iodide, flow cytometry); conditions: MDA-MB-231, 24 h; C14 and P8 at IC50-24, cisplatin 100 µM, doxorubicin 0.5 µM
Description: (§1) To determine if the C14 and P8 compounds were able to evoke cell death by apoptosis or necrosis, cell lines MCF-10A, MDA-MB-231, and MDA-MB-231RR were treated at IC50-24 for 24 h. Apoptosis and necrosis were determined using the Apoptosis/Necrosis Detection kit (Abcam, Cambridge, UK) according to the manufacturer’s instructions. In brief, approximately 500,000 cells were seeded in 6-well plates (Corning) for 24 h. Then, each cell line was treated with the respective IC50-24 concentrations of C14 and P8. […] Cells were harvested and collected by centrifugation. All the samples were analyzed in triplicate using flow cytometry equipment FACSCalibur instrument (BD Biosciences, San Jose, CA, USA) at […] and 575-nm emission. Data analysis was performed using the FlowJo software (Tree Star Inc., Ashland, OR, USA). All experiments were performed in triplicate.

MDA-MB-231RR cells [3] = experiment: as above; conditions: 24 h, C14 and P8 at IC50-24, cisplatin 100 µM, doxorubicin 0.5 µM
Description: as §1

MDA-MB-231 cells [4] = experiment: Clonogenic assay; conditions: MDA-MB-231, 10 to 12 days; C14 and P8 at IC50-48, cisplatin 100 µM, doxorubicin 0.5 µM
Description: (§2) The principal aim of a clonogenic assay is to evaluate the effect of chemotherapy agents or new drugs by the measurement of their ability to arrest tumor cell division and their ability to develop new colonies after their exposure to these new drugs ([56]). Therefore, the colony formation ability of the cell lines MCF-10A, MDA-MB-231, and MDA-MB-231RR was evaluated after their exposure to the C14 and P8 compounds. In brief, breast cancer cell lines were cultured in 6-well plates (Corning), seeding 300 cells per well, and incubated at 37°C in 5% CO2 for 24 h. Compounds C14 and P8 were added at the maximum evaluated concentration IC50-48. As controls, cells without treatment and cells treated in the presence of a vehicle (DMSO at 0.66%) were employed (Sigma-Aldrich). […] After 10 days of treatment, cells were fixed with 4% PFA and stained with 0.1% crystal violet in citric acid (Sigma-Aldrich) for 15 minutes. Subsequently, the dye present in the cells was extracted using isopropanol and read at 570 nm in a Synergy-HTX microplate reader (BioTek). Each test was performed in triplicate. Data were expressed as % colonies relative to the untreated control ([56]).

MDA-MB-231RR cells [5] = experiment: Clonogenic assay; conditions: for reduction in colony formation: 10 to 12 days, C14 and P8 at IC50-48, cisplatin 100 µM, doxorubicin 0.5 µM
Description: as §2

MCF-10A cells = experiment: XTT cell viability assay and IC50 determination; conditions: for concentration required to observe any effect on cell viability: MCF-10A control cells, statistical analysis; for IC50: XTT, ± SD
Description: (§3) In order to evaluate the effect of the C14 and P8 compounds over MCF-10A, MCF-7, MDA-MB-231, and […] cell lines, the IC50 of those molecules was determined. In brief, all the cell lines were seeded at a density of 15,000 cells per well in a 96-well microtiter plate (Corning) in a corresponding growth medium for 24 h. Then, cells were treated with increasing concentrations (from 0 to 200 μM) of the C14 and P8 compounds (Enamine, Kyiv, Ukraine). As a positive control, increased concentrations of cisplatin (from 0 to 200 µM) (Accord, Mexico City, Mexico) were employed. Due to that, dimethyl sulfoxide (DMSO) was used as a vehicle, and its increased concentrations were evaluated as the negative control. All the samples were maintained under growth conditions for 24 h and 48 h. At the end of each time, cell viability was determined using the XTT Cell Proliferation Kit II (Roche Applied Science, Mannheim, Germany) following the manufacturer’s protocol. The absorbance was measured in a spectrophotometer Synergy-HTX (BioTek) at a wavelength of 450–500 nm with a reference wavelength of 650 nm. Cell proliferation was expressed as a percentage of viability [(absorbance of treated cells/absorbance of untreated cells × 100)] ± SD.

MCF-7 cells = experiment: XTT cell viability assay and IC50 determination; conditions: ± SD
Description: as §3

MDA-MB-231RR cells [6] = experiment: XTT cell viability assay and IC50 determination; conditions: for IC50: XTT, ± SD
Description: as §3

[7] = MCF-10A, 24 h, read-out: IC50-24
[8] = MCF-10A, 48 h, read-out: IC50-48

For `CN(CC(=O)NC1CCOc2ccccc21)Cc1cccc(Cl)c1` (centres unmarked) [C14, 2-[(3-chlorophenyl)-methyl-methyl-amino]-N-croman-4-yl-acetamide], the “reduction in cyclin D1 expression” value [1] was 20%, the “reduction in GSK3β expression” value [1] was “did not show an effect” and the apoptosis cells (MDA-MB-231 cells [2]) was “up to 18.52%”. The necrosis (MDA-MB-231 cells [2]) was 0.56%, the apoptosis cells (MDA-MB-231RR cells [3]) was “up to 21.62%” and the necrosis (MDA-MB-231RR cells [3]) was 0.13%. For the same compound, the “reduction in colony formation” value (MDA-MB-231 cells [4]) was “up to 95%”, the “reduction in colony formation” value (MDA-MB-231RR cells [5]) was “up to 90%” and the colonies persisted (MDA-MB-231RR cells [5]; C14 at IC50-48) was ~10%. For the same compound, the “concentration required to observe any effect on cell viability” value (MCF-10A cells) was “higher than 100 µM”, the IC50 (MCF-10A cells; [7]) was > 200 µM and the IC50 (MCF-10A cells; [8]) was > 200 µM. It also gave an IC50 (MCF-7 cells; MCF-7, 24 h, read-out: IC50-24) of 174 ± 19 µM, an IC50 (MCF-7 cells; MCF-7, 48 h, read-out: IC50-48) of 134 ± 10.5 µM and an IC50 (MDA-MB-231RR cells [6]; 24 h, read-out: IC50-24) of 128 ± 2.6 µM. For the same compound, the “concentration from which a significant inhibitory effect on viability is seen” value (MDA-MB-231RR cells [6]; 48 h) was ≥ 30 µM and the IC50 (MDA-MB-231RR cells [6]; 48 h, read-out: IC50-48) was 70.6 ± 3.5 µM.
`N.N.[Cl][Pt][Cl]` [Cisplatin, cisplatin, reference compound] was tested, and the “reduction in cyclin D1 expression” value [1] was 10%, the apoptosis cells (MDA-MB-231 cells [2]) was 13.71% and the necrosis (MDA-MB-231 cells [2]) was 2.14%. The apoptosis cells (MDA-MB-231RR cells [3]) was “up to 19.13%”, the necrosis (MDA-MB-231RR cells [3]) was 0.40% and the “reduction in colony formation” value (MDA-MB-231 cells [4]) was “significant reduction”. For the same compound, the “reduction in colony formation” value (MDA-MB-231RR cells [5]) was 99%, the IC50 (MCF-10A cells; [7]) was 12 µM and the IC50 (MCF-10A cells; [8]) was 5.9 ± 1.6 µM. The “reduction of cellular viability” value (MCF-10A cells; MCF-10A, at low concentrations) was “more than 90%”, the IC50 (MCF-7 cells; MCF-7, 24 h, read-out: IC50-24) was 150 ± 32.1 µM and the IC50 (MCF-7 cells; MCF-7, 48 h, read-out: IC50-48) was 67.3 ± 20.6 µM. For the same compound, the IC50 (MDA-MB-231RR cells [6]; 24 h, read-out: IC50-24) was 200 µM and the IC50 (MDA-MB-231RR cells [6]; 48 h, read-out: IC50-48) was 104 ± 8.7 µM.
In the case of `O=C(CN1CCN(c2cccc(Cl)c2)CC1)N[C@@H]1CCOc2ccccc21` [P8, 2-[4-(3-chlorophenyl)piperazin-1-yl]-N-[(4R)-chroman-4-yl]acetamide], the “reduction in cyclin D1 expression” value [1] is reported as 20%, the “reduction in GSK3β expression” value [1] is reported as 40% and the apoptosis cells (MDA-MB-231 cells [2]) is reported as 48.5%. For the same compound, the necrosis (MDA-MB-231 cells [2]) was 4.28%, the apoptosis cells (MDA-MB-231RR cells [3]) was 72% and the necrosis (MDA-MB-231RR cells [3]) was 1.75%. The “reduction in colony formation” value (MDA-MB-231 cells [4]) was “up to 95%”, the “reduction in colony formation” value (MDA-MB-231RR cells [5]) was “up to 99%” and the IC50 (MCF-10A cells; Homo sapiens, MCF-10A, 24 h, read-out: IC50-24) was > 200 µM. For the same compound, the IC50 (MCF-10A cells; Homo sapiens, MCF-10A, 48 h, read-out: IC50-48) was > 200 µM, the “concentration required to observe any effect on cell viability” value (MCF-10A cells) was > 150 µM and the IC50 (MCF-7 cells; Homo sapiens, MCF7, MCF-7, 24 h, read-out: IC50-24) was 185 ± 15.3 µM. For the same compound, the IC50 (MCF-7 cells; Homo sapiens, MCF7, MCF-7, 48 h, read-out: IC50-48) was 104 ± 49.8 µM, the “concentration from which a significant inhibitory effect on viability is seen” value (MDA-MB-231RR cells [6]; 48 h) was ≥ 10 µM and the IC50 (MDA-MB-231RR cells [6]; Homo sapiens, 24 h, read-out: IC50-24) was 163 ± 16.8 µM. It also gave an IC50 (MDA-MB-231RR cells [6]; Homo sapiens, 48 h, read-out: IC50-48) of 156 ± 28.4 µM.
